The source of these data is US20060276510A1, “Dihydropyridine compounds and compositions for headaches” (priority 2005, published 2006).

The subject of data set [1] is carrageenan-induced thermal hyperalgesia. The data set is described as follows: rat carrageenan-induced inflammatory pain model (thermal hyperalgesia, hind paw withdrawal latency). The data set is classed as in vivo, Male Wistar rats. The following applies: for effect on induced hyperalgesia (withdrawal latency of ipsilateral, carrageenan-injected hind paw): 1 hour after administration. The method, then: Anti-migraine agents are commonly evaluated using the carrageenan-induced thermal hyperalgesia model (Bingham et al, Experimental Neurology, 167:65-73 (2001); Daher et al, Life Sciences, 76:2349-2359 (2005)).
Male Wistar rats (5/group) were used for the experiment. Withdrawal latency to escape from heat noxious stimuli on both hind paws of the rats was measured using TAIL FLICK 7360 (Ugo Basile, Italy). 1% Carageenan was injected into the right hind paw footpat of the rats. […] The withdrawal latency from heat stimuli of both hind paws of rats was measured 1, 3 and 5 hours after drug administration.
The effect of carrageenan was observed during all of the experiment period.

The conditions of data set [2]: two hours after infusion; patients; cited from earlier work.

Take `N#Cc1ccccc1-c1cc(-c2ccccn2)cn(-c2ccccc2)c1=O` [Compound A, 2-(2-oxo-1-phenyl-5-pyridin-2-yl-1,2-dihydropyridin-3-yl)benzonitrile]: the “effect on induced hyperalgesia (withdrawal latency of ipsilateral, carrageenan-injected hind paw)” value in data set [1] (3 mg/kg orally, FIG. 1) is reported as “inhibited induced hyperalgesia”; in data set [1] (6 mg/kg orally, FIG. 1), “inhibited induced hyperalgesia”. For the same compound, the “course of the anti-hyperalgesic effect (ipsilateral hind paw)” value in data set [1] (3 and 6 mg/kg orally, 3 and 5 hours after administration, FIG. 1) is on record as “declined”. In addition, the “withdrawal latency of contralateral hind paw” value in data set [1] (orally, contralateral (left) hind paw, FIG. 2) is “did not change the latency”. In data set [1] (rats, orally, FIG. 2), the “effect on motor function (suggested from unchanged contralateral latency)” value is “did not affect motor function”.

For `O=C(O)[C@@H]1C[C@H]2C[C@@H](CCc3nn[nH]n3)CC[C@H]2CN1` [LY293558], in data set [2], the “efficacy rate for a sustained response” value is 69%.

With `CNS(=O)(=O)Cc1ccc2[nH]cc(CCN(C)C)c2c1` [sumatriptan], the “efficacy rate for a sustained response” value in data set [2] is on record as 87%.
